Q: Which melting point does the source give for `Clc1ccc2c(c1)C(n1ccnc1)c1ccccc1CO2` (centres undefined) here?
A: 180 to 182 °C

Q: With `O=C(OCC(F)(F)F)c1ncn2c1CN=C(c1ccccc1)c1cc(Br)ccc1-2` as the molecule, how does the melting point read?
A: 202 to 204 °C

Q: Which melting point does the source give for `CC=COc1cc(N)c(Cl)cc1C(=O)O` here?
A: 136 to 137 °C

Q: With `CN1CCN(c2cccc3c2C[C@H](NC(=O)c2ccc(N4CCSCC4)cc2)CC3)CC1` as the molecule, how does the melting point read?
A: 190 to 191 °C

Q: With `Clc1ccc2c(c1)C(c1ccccc1)=NCc1nnc(CNC3CC3)n1-2` as the molecule, how does the melting point read?
A: 164 to 169 °C

Q: Which melting point does the source give for `COc1cc2ncnc(N3CCC(CN)CC3)c2cc1OC` here?
A: 144 to 146 °C

Q: With `CC(C)(C)[Si](C)(C)OCc1cccc(-c2ccc3nc(Cl)cn3c2)c1` as the molecule, how does the melting point read?
A: 120 to 123 °C

Q: For `C=CCOc1ccccc1S(=O)(=O)NC(=O)Nc1nc(C)nc(OC)n1`, which melting point is on record?
A: 146 to 147 °C

Q: With `CS(=O)C1C=Nc2cc(Cl)ccc2C1=O` (centres undefined) as the molecule, how does the melting point read?
A: 247 to 249 °C

Q: Which melting point does the source give for `N#Cc1cnn2c(-c3ccccc3)ccnc12` here?
A: 230 to 232 °C

Q: Which melting point does the source give for `O=C(CCN1C(=O)c2ccccc2C1=O)c1ccc(Cl)cc1C(=O)c1ccccc1` here?
A: 163 to 164 °C

Q: Which melting point does the source give for `COc1cc2nc(NCCNCC(O)COc3ccccc3)nc(N)c2cc1OC` (centres undefined) here?
A: 122 to 124 °C

Q: For `CCCCNc1cc(-c2nc(N)n[nH]2)ccn1`, which melting point is on record?
A: 268 to 270 °C

Q: For `O=c1[nH]c2c(n(O)c1=O)C1=C(CCC(n3ccc(CN4CCN(C(c5ccccc5)c5ccccc5)CC4)c3)=C1)CC2`, which melting point is on record?
A: > 200 °C

Q: For `CCc1noc(C)c1-c1c(C(O)CN(C)C)c2ccccc2n1C` (centres undefined), which melting point is on record?
A: 119 to 121 °C

Q: Which melting point does the source give for `CCC1(CCCCCBr)C(=O)Nc2ccc(C)cc21` (centres undefined) here?
A: 72 to 73 °C

Q: With `CN(C(=O)C(C)(C)NC(=O)OCc1ccccc1)c1ccc([N+](=O)[O-])cc1C(=O)c1ccccc1F` as the molecule, how does the melting point read?
A: 168 to 169 °C

Q: Which melting point does the source give for `c1ccc(OCCSCc2nnc(-c3ccc(OCc4ccccn4)cc3)o2)cc1` here?
A: 115 °C

Q: With `OCCOc1cccc(-c2n[nH]c3c2Cc2ccccc2-3)c1` as the molecule, how does the melting point read?
A: 203 to 205 °C

Q: With `CC(C)(C)OC(=O)N1CCCC1(Cc1ccc(Br)cc1)C(=O)O` (centres undefined) as the molecule, how does the melting point read?
A: 144 °C

Q: For `CC(C)(C)OC(=O)c1ccc(N2CCC(N)CC2)cc1`, which melting point is on record?
A: 89 to 91 °C

Q: For `COC(=O)c1cc(-c2ccc(OC)c(Cl)c2)nn(CC=Cc2ccc(Cl)cc2)c1=O`, which melting point is on record?
A: 180 to 182 °C

Q: With `CC(C)CC(=O)Nc1cccc(-c2ccnc3c(-c4cccc(CN5CCOCC5)c4)cnn23)c1` as the molecule, how does the melting point read?
A: 170 to 173 °C

Q: With `CC(C)(C)OC(=O)NCC1CN(C(c2ccccc2)c2ccccc2)C1` as the molecule, how does the melting point read?
A: 108 to 110 °C

Q: For `Cc1cc(C(N)=O)ncc1C(c1c(F)ccc(F)c1F)S(=O)(=O)CCC(Cl)(Cl)Cl` (centres undefined), which melting point is on record?
A: 173 to 175 °C

Q: For `O=C1c2ccccc2C(O)(c2ccc(F)cc2)C2=NC3CCCCC3N12` (centres undefined), which melting point is on record?
A: 203 to 205 °C

Q: With `OC(Cc1ccc(Cl)cc1Cl)(Cn1ccnc1)c1ccc(F)cc1` (centres undefined) as the molecule, how does the melting point read?
A: 178 to 179 °C

Q: For `COc1cc(Nc2ccccn2)ccc1C(N)=O`, which melting point is on record?
A: 226 to 227 °C

Q: Which melting point does the source give for `Cc1cc(C(O)C[N+](=O)[O-])cc(C)c1Oc1ccc([N+](=O)[O-])c(Nc2ccc(C#N)cc2)n1` (centres undefined) here?
A: 230 to 234 °C

Q: Which melting point does the source give for `O=[N+]([O-])c1cccc2cc(-c3ccccn3)[nH]c12` here?
A: 162 to 163 °C

Q: With `CC(c1oc2ccccc2c(=O)c1-c1cccc(F)c1)n1nc(-c2cn[nH]c2)c2c(N)ncnc21` (centres undefined) as the molecule, how does the melting point read?
A: 223 to 226 °C

Q: Which melting point does the source give for `Oc1ccc(-c2ncc3ncc(-c4cccs4)cc3n2)cc1` here?
A: 240 to 242 °C

Q: Which melting point does the source give for `COc1ccc(C(F)(F)F)cc1-c1ccc(S(=O)(=O)N2c3ccccc3CC2C(=O)NCCOc2ccc(CC(=O)O)cc2)cc1` (centres undefined) here?
A: 85 to 88 °C

Q: With `CN1CCC(=C2c3ccccc3OCc3cc(Br)sc32)CC1` as the molecule, how does the melting point read?
A: 101 to 103 °C

Q: Which melting point does the source give for `O=C(Cc1ccccc1SCc1ccccc1)Nc1ccccc1` here?
A: 81 to 83 °C

Q: Which melting point does the source give for `O=c1[nH]c2sccc2c(=O)n1CCN1CCN(c2ccccc2Cl)CC1` here?
A: 216 to 217 °C

Q: For `CNC(=O)c1ccc(N2CCN(Cc3cnc4c(c3)[nH]c(=O)n3cccc43)CC2)c(Cl)c1`, which melting point is on record?
A: 260 to 266 °C

Q: For `Cc1ccnc(Sc2nc(-c3ccc(Cl)cc3)c(CCC(=O)O)o2)n1`, which melting point is on record?
A: 174 to 175 °C

Q: With `CC1=C2OCOC2CC(C)(C)C1(O)C[Si](C)(C)C` (centres undefined) as the molecule, how does the melting point read?
A: 63 to 64.5 °C

Q: With `O=C(c1ccc(C(F)(F)F)cc1Sc1ccccc1)c1cnoc1C1CC1` as the molecule, how does the melting point read?
A: 115 °C

Q: With `CC(=O)Oc1c(C)cc(OCC(=O)c2ccc(C(C)C)cc2)c2ccccc12` as the molecule, how does the melting point read?
A: 105 to 106 °C

Q: For `CCOC(=S)c1cnc(C)nc1NC(=O)Nc1ccccc1Cl`, which melting point is on record?
A: 172 to 173 °C

Q: With `CCOC(=O)/C=C/c1cn(Cc2ccc(OCc3ccccc3)cc2)nc1-c1ccccc1` as the molecule, how does the melting point read?
A: 94 to 95 °C

Q: Which melting point does the source give for `Cc1nc(-c2ccccc2)n(-c2ccc(S(C)(=O)=O)cc2)n1` here?
A: 118 to 119 °C

Q: Which melting point does the source give for `CN(C)c1ccc(Nc2cccc3c2C(=O)N(C2CCC(=O)NC2=O)C3=O)cc1` (centres undefined) here?
A: > 260 °C

Q: With `Cc1ccc2nc(-c3cccnc3N)n(-c3ccc(CC(=O)c4ccccc4)cc3)c2n1` as the molecule, how does the melting point read?
A: 194 to 196 °C

Q: With `CC12CCC3c4ccc(C(=O)O)cc4CCC3C1CCC2C(=O)CCc1ccc(O)cc1` (centres undefined) as the molecule, how does the melting point read?
A: 197 °C

Q: For `N#Cc1cc(Br)c2c(c1)N(C1CC1)CNS2(=O)=O`, which melting point is on record?
A: 250 to 253 °C

Q: With `CC(C)(C)C(=O)OC1CC(C)(C)N(OC(=O)C(C)(C)C)C(C)(C)C1` as the molecule, how does the melting point read?
A: 43 to 46 °C

Q: With `CCN(c1cc(C(=O)OC)c(O)c2ncc(Cc3ccc(F)cc3)cc12)S(C)(=O)=O` as the molecule, how does the melting point read?
A: 149 to 150 °C

Q: With `CNC(=O)C(Cc1ccc(OC)cc1)NC(=O)C(CC(C)C)C(CC(=O)NCC(=O)OC(C)(C)C)SC(C)=O` (centres undefined) as the molecule, how does the melting point read?
A: 192 to 194 °C

Q: Which melting point does the source give for `CCN1CCc2cc(Nc3ncc(Cl)c(N[C@@H]4CCCC[C@H]4NS(C)(=O)=O)n3)c(OC)cc2CC1=O` here?
A: 139 to 150 °C

Q: For `COC1(c2cccc(S(=O)(=O)c3ccc(N(C)C(C)=O)c(Cl)c3)c2)CCOCC1`, which melting point is on record?
A: 119 to 121 °C

Q: With `Cn1ncnc1COc1nn2c(-c3ccccc3F)nnc2cc1C(F)(F)F` as the molecule, how does the melting point read?
A: 123 to 126 °C

Q: With `CCCCOCCOc1ccc(-c2ccc3c(c2)C=C(C(=O)Nc2ccc4c(c2)nc(S(=O)Cc2cncn2CCC)n4C)CCN3CC(C)C)cc1` (centres undefined) as the molecule, how does the melting point read?
A: 150 to 151 °C

Q: Which melting point does the source give for `CC(C)(C)OC(=O)C(Cc1ccccc1)c1ccc([N+](=O)[O-])cc1` (centres undefined) here?
A: 98 to 99 °C

Q: For `CN1CC(CCN2CCN(c3ccc(Cl)cc3)CC2)OC1=O` (centres undefined), which melting point is on record?
A: 113 to 114 °C

Q: For `Cc1nc(-c2ccc(N)c(C#N)c2)c[nH]1`, which melting point is on record?
A: 89 to 91 °C

Q: With `CCCCOc1cc(Oc2ccc(C(F)(F)F)cn2)ccc1CCCOc1c(CC(=O)O)cccc1OC` as the molecule, how does the melting point read?
A: 64 to 65 °C

Q: Which melting point does the source give for `COc1cc2c(cc1-c1nc3cc(-c4ccccc4)ccc3o1)oc1ccccc12` here?
A: 155 to 160 °C

Q: With `CCCCOC(=O)c1cccc2nc(CCCC)n(Cc3ccc(-c4ccccc4-c4nnn[nH]4)cc3)c12` as the molecule, how does the melting point read?
A: 192 to 193 °C

Q: With `CCC(C)n1nnc2c(N=C=S)cccc21` (centres undefined) as the molecule, how does the melting point read?
A: 77 to 78 °C

Q: For `O=c1[nH]c2ncc(-c3ccc(CO)cc3)nc2n1CC1CCCCC1`, which melting point is on record?
A: 275 to 277 °C

Q: Which melting point does the source give for `NS(=O)(=O)c1cc2c(s1)CCC(=O)C2` here?
A: 148 to 150 °C

Q: For `CNC(=O)N(O)C(C)c1cc2ccccc2s1` (centres undefined), which melting point is on record?
A: 149 to 150 °C

Q: With `CC(=O)c1cc(CN2CCN(CCO)CC2)ccc1O` as the molecule, how does the melting point read?
A: 72 to 75 °C

Q: With `CCNC(=O)N1C(=O)C2(CCCCC2)NC12CCCCC2` as the molecule, how does the melting point read?
A: 185 to 188 °C

Q: With `O=C1CCCN1c1cn(-c2cccnc2)nc1Cl` as the molecule, how does the melting point read?
A: 109 to 110 °C

Q: For `COc1cc(CC(C)NC(=O)c2ccccc2)cc2c1OC(C)(C)C2` (centres undefined), which melting point is on record?
A: 141 to 142 °C

Source: a melting point compilation (Tetko et al.; mined from patent text by program, amines drawn as free bases though some values may be those of a salt)
